Like-named read-outs stand apart in the source and are kept apart here. *1 amine or outer side, *2 acyl side, *3 side chain or, on linkers, in order; H or OH if unused. Where a SMILES comes first, the peptide text is derived from it. Bridges are numbered along the chain shown (N, C = ends). [ ]: non-standard residue; d: D form. N(4-F-Bzl)Gly = O=C(O)CNCc1ccc(F)cc1; X1 = O=C(CCC[*:2])[*:1]
Key:
[1] = tested on: healthy women; conditions: in vivo;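 as to dry mouth: subjects reporting: adverse events in healthy women given intranasal doses every 3 h over 45 h (16 doses per panel), each panel with 6 active and 2 placebo subjects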;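 as to withdrawal due to nausea: adverse events in healthy women given intranasal doses every 3 h over 45 h (16 doses per panel), each panel with 6 active and 2 placebo subjects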
[2] = clinical; conditions: female, human, in vivo
Experimental: (§1) The first clinical trial in human, Trial 000015, was a double-blind, placebo-controlled, single dose, within dose panel randomised, sequential dose escalating study. The trial was divided into three parts:
(§2) Part 1. Ascending single i.n. doses. There were 7 dose panels with 8 healthy women in each dose panel (6 active, 2 placebo). The doses investigated were 5 μg, 15 μg, 50 μg, 100 μg, 200 μg, 300 μg, and 400 μg.
(§3) Seven dose levels were investigated: 5, 15, 50, 100, 200, 300, and 400 μg. Each of the doses were administered as a nasal spray based on one or multiple puffs per nostril.
(§4) FE 202767 was provided as an isotonic citrate/phosphate buffered solution of pH 5.5 in water in vials containing an extractable volume of 0.9 mL (Table 2). The concentration of FE 202767 was 0.7 mg/mL, to be used appropriately diluted with buffer or, for Part 3, NaCl for injection. The buffer used for FE 202767 was used as placebo in this study.

[3] = tested on: early postpartum women; conditions: in vivo
Experimental: Healthy women received 5 or 20 μg merotocin i.v. shortly after delivery (Part A) or 20 μg merotocin i.v. when lactation was established (Part B). Milk was expressed by pumping at 15 minutes, 3 hours, 6 hours, 9 hours, 12 hours, 18 hours and 18-24 hours after start of infusion and analysed for merotocin and metabolites.

[4] = tested on: healthy women;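 as to dry mouth: subjects reporting: adverse events in healthy women given intranasal doses every 3 h over 45 h (16 doses per panel), each panel with 6 active and 2 placebo subjects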;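 as to withdrawal due to nausea: adverse events in healthy women given intranasal doses every 3 h over 45 h (16 doses per panel), each panel with 6 active and 2 placebo subjects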
Experimental: Part 2. Ascending multiple i.n. doses. There were 3 dose panels with 8 healthy women in each dose panel (6 active, 2 placebo). The dosing schedule was every 3 hours for 45 hours, i.e. 16 doses in all. The doses investigated were 50 μg, 200 μg, and 400 μg.
Three dose levels were investigated: the first dose was 50 μg, the second dose was 200 μg (intermediate between the first dose and the maximal tolerated dose in Part 1), and the highest dose was 400 μg (the maximal dose in Part 1).

[5] = Trial 000015 Part 1: pharmacokinetics after single intranasal administration
Experimental: as §1, §2, §3, §4

[6] = tested on: chymotrypsin
[7] = multiple doses 50 μg i.n., N = 6
[8] = multiple doses 200 μg i.n., N = 6
[9] = multiple doses 400 μg i.n., N = 6

## CC[C@H](C)[C@@H]1NC(=O)[C@H](Cc2ccc(O)cc2)NC(=O)CCCSC[C@@H](C(=O)N(CC(=O)N[C@@H](CC(C)C)C(=O)NCC(N)=O)Cc2ccc(F)cc2)NC(=O)[C@H](CC(N)=O)NC(=O)[C@H](CCC(N)=O)NC1=O [merotocin, Glycinamide, N-(4-mercapto-1-oxobutyl)-L-tyrosyl-L-isoleucyl-Lglutaminyl-L-asparaginyl-L-cysteinyl-N-[(4-fluorophenyl)methyl]glycyl-L-leucyl-, cyclic (1→5)-thioether] (YIQNC[N(4-F-Bzl)Gly]LG-NH2; linker N-5 via X1)
[1]
  blood pressure shifts: Only occasional events of blood pressure shifts
  pulse rate: appeared to increase the pulse rate
  urinary retention: no signs of urinary retention
[2]; inhaled or intranasal, 200 ug, t1/2 Median
  half-life: 23.4 min
[2]; inhaled or intranasal, 400 ug, t1/2 Harmonic mean
  half-life: 33.6 min
[2]; inhaled or intranasal, 400 ug, t1/2 Median
  half-life: 33 min
[2]; t1/2
  half-life: 25 to 35 min
[3]
  Any AE: number of AEs, E: 16
  Any AE: subjects with AE, n (%): 8 (44)
  Back pain: number of AEs, E: 1
  Back pain: subjects with AE, n (%): 1 (6)
  Breast engorgement: number of AEs, E: 3
  Breast engorgement: subjects with AE, n (%): 3 (17)
  Headache: number of AEs, E: 3
  Headache: subjects with AE, n (%): 2 (11)
  Lactation puerperal increased: number of AEs, E: 1
  Lactation puerperal increased: subjects with AE, n (%): 1 (6)
  Muscle spasms: number of AEs, E: 1
  Muscle spasms: subjects with AE, n (%): 1 (6)
  Uterine spasm: number of AEs, E: 7
  Uterine spasm: subjects with AE, n (%): 6 (33)
  safety (key results): No safety
[3]; iv
  severe or serious AE: No severe or serious AE occurred
[4]; 400 μg group, multiple doses
  withdrawal due to nausea: One subject was withdrawn
[4]; 200 and 400 μg groups, multiple doses
  dry mouth: subjects reporting: 5 subjects
[4]; after multiple dose administrations
  intensity of all TEAEs: mild
[4]; all treatment groups, multiple doses
  headache: subjects reporting: 4 subjects
[4]; [7]
  Any AE: number of AEs, E: 3
  Any AE: subjects with AE, n (%): 3 (50%)
  Breast tenderness: number of AEs, E: 1
  Breast tenderness: subjects with AE, n (%): 1 (17%)
  Headache: number of AEs, E: 2
  Headache: subjects with AE, n (%): 2 (33%)
[4]; [8]
  Any AE: number of AEs, E: 5
  Any AE: subjects with AE, n (%): 4 (67%)
  Dry mouth: number of AEs, E: 3
  Dry mouth: subjects with AE, n (%): 3 (50%)
  Flushing: number of AEs, E: 1
  Flushing: subjects with AE, n (%): 1 (17%)
  Headache: number of AEs, E: 1
  Headache: subjects with AE, n (%): 1 (17%)
[4]; [9]
  Any AE: number of AEs, E: 6
  Any AE: subjects with AE, n (%): 3 (50%)
  Dry mouth: number of AEs, E: 2
  Dry mouth: subjects with AE, n (%): 2 (33%)
  Flushing: number of AEs, E: 1
  Flushing: subjects with AE, n (%): 1 (17%)
  Headache: number of AEs, E: 2
  Headache: subjects with AE, n (%): 1 (17%)
  Nausea: number of AEs, E: 1
  Nausea: subjects with AE, n (%): 1 (17%)
[4]; multiple doses, 24 subjects
  number of TEAEs reported: 14
[5]; female, human, plasma, inhaled or intranasal, 100 ug, Cmax Geom. mean (% CV), single i.n. dose 100 μg, N = 6
  Cmax: 0.0379 ng/mL
[5]; female, human, plasma, inhaled or intranasal, 100 ug, Cmax Median, single i.n. dose 100 μg, N = 6
  Cmax: 0.0322 ng/mL
[5]; female, human, plasma, inhaled or intranasal, 200 ug, AUCt Geom. mean (% CV), single i.n. dose 200 μg, N = 6
  AUC(0-t): 0.0357 ng·h/mL
[5]; female, human, plasma, inhaled or intranasal, 200 ug, AUCt Median, single i.n. dose 200 μg, N = 6
  AUC(0-t): 0.0525 ng·h/mL
[5]; female, human, plasma, inhaled or intranasal, 200 ug, Cmax Geom. mean (% CV), single i.n. dose 200 μg, N = 6
  Cmax: 0.0841 ng/mL
[5]; female, human, plasma, inhaled or intranasal, 200 ug, Cmax Median, single i.n. dose 200 μg, N = 6
  Cmax: 0.0999 ng/mL
[5]; female, human, plasma, inhaled or intranasal, 300 ug, AUCt Geom. mean (% CV), single i.n. dose 300 μg, N = 6
  AUC(0-t): 0.0778 ng·h/mL
[5]; female, human, plasma, inhaled or intranasal, 300 ug, AUCt Median, single i.n. dose 300 μg, N = 6
  AUC(0-t): 0.0943 ng·h/mL
[5]; female, human, plasma, inhaled or intranasal, 300 ug, Cmax Geom. mean (% CV), single i.n. dose 300 μg, N = 6
  Cmax: 0.143 ng/mL
[5]; female, human, plasma, inhaled or intranasal, 300 ug, Cmax Median, single i.n. dose 300 μg, N = 6
  Cmax: 0.148 ng/mL
[5]; female, human, plasma, inhaled or intranasal, 300 ug, tmax Mean (SD), single i.n. dose 300 μg, N = 6
  Tmax: 12 min
[5]; female, human, plasma, inhaled or intranasal, 400 ug, AUCt Geom. mean (% CV), single i.n. dose 400 μg, N = 6
  AUC(0-t): 0.0886 ng·h/mL
[5]; female, human, plasma, inhaled or intranasal, 400 ug, AUCt Median, single i.n. dose 400 μg, N = 6
  AUC(0-t): 0.119 ng·h/mL
[5]; female, human, plasma, inhaled or intranasal, 400 ug, Cmax Median, single i.n. dose 400 μg, N = 6
  Cmax: 0.199 ng/mL
[5]; female, human, plasma, inhaled or intranasal, 400 ug, tmax Mean (SD), single i.n. dose 400 μg, N = 6
  Tmax: 13.2 min
[5]; female, human, plasma, other: intranasal, tmax, all i.n. dose levels, single or multiple administration
  Tmax: 12 to 15 min
[5]; female, human, plasma, other: intranasal, tmax, single i.n. dose, all dose groups
  Tmax: 12 to 15 min
[5]; female, human, plasma, other: intranasal, t½, after i.n. administration, Trial 000015 key results
  half-life: ~30 min
[5]; single i.n. doses
  increase of exposure (AUC and Cmax) with dose: close to dose proportional manner
[6]
  degradation by chymotrypsin: degradable by chymotrypsin
